From PMC11420944, “Targeted Degradation of Protein Kinase A via a Stapled Peptide PROTAC” (ACS Chemical Biology, 2024)

How the values were obtained:
[1] = system: phospho VASP; assay: VASP phosphorylation in forskolin-stimulated cells, Western blot; type: cell-based; conditions: MDA-MB-231 cells, 50 µM H89 added 30 min before 50 µM forskolin (30 min); n = 3
Procedure: (§1) Next, we sought to assess whether StIP-TAC could also downregulate PKAc signaling in cells. For this experiment, cells were treated with forskolin to stimulate PKAc activity. Cells were either treated with DMSO, the small molecule PKAc inhibitor H89, StIP-TAC alone, or StIP-TAC with SAINT protein (Figure 4; Figure S7). […] (Figure 4C,D). A known PKA substrate, vasodilator-stimulated phosphoprotein (VASP),[42] was also probed for PKA-mediated phosphorylation (Figure S8).
Cell-based PROTAC activity assays. MDA-MB-231 cells were grown on 6-well tissue culture plates (BD Biosciences). Cells were serum-starved for 24 hours in serum-free RPMI with penicillin/streptomycin, glucose, and L-glutamine. StIP-TAC treatment was prepared with SAINT-Protein reagent according to manufacturer protocol (Synvolux) and added to cells at a final concentration of 10 µM for 5 hours. For phosphorylation studies, cells were additionally stimulated with 50 µM forskolin for 30 minutes before harvesting. For H89-treated cells, 50 μM H89 was added 30 minutes before stimulation with forskolin. For degradation studies, cells were co-treated with 10 μM MG-132 (Selleck Chemicals) alongside StIP-TAC and DMSO treatments for the duration of the 5-hour experiment. […] Cells were harvested in Laemmli sample buffer, boiled for 10 minutes and protein levels were analyzed via western blotting. […]
Biosciences). Western blot fluorescence detection was performed using a LI-COR Odyssey Fc imaging system. […]
Table S1. Peptide and PROTAC sequences, expected and observed masses determined via HPLC-MS. […]
Figure S8: StIP-TAC inhibits phosphorylation of the PKA substrate VASP. […] (B) Densitometric quantification of Western blots […]
reduction in phosphorylated VASP in cells treated with H89 and StIP-TAC with SAINT Protein reagent. Quantification was performed via Li-COR Image Studio. **p=0.010; ***p<0.001; ns, not significant as assessed by one-way ANOVA and Bonferroni’s multiple comparisons test. […]

[2] = system: phospho serine/threonine PKA substrate; assay: PKA substrate phosphorylation in forskolin-stimulated cells, Western blot; type: cell-based; conditions: MDA-MB-231 cells, 50 µM H89 added 30 min before 50 µM forskolin (30 min); n = 3
Procedure: as §1
Cell-based PROTAC activity assays. MDA-MB-231 cells were grown on 6-well tissue culture plates (BD Biosciences). Cells were serum-starved for 24 hours in serum-free RPMI with penicillin/streptomycin, glucose, and L-glutamine. StIP-TAC treatment was prepared with SAINT-Protein reagent according to manufacturer protocol (Synvolux) and added to cells at a final concentration of 10 µM for 5 hours. For phosphorylation studies, cells were additionally stimulated with 50 µM forskolin for 30 minutes before harvesting. For H89-treated cells, 50 μM H89 was added 30 minutes before stimulation […]
with forskolin. […]
Cells were harvested in Laemmli sample buffer, boiled for 10 minutes and protein levels were analyzed via western blotting. For control experiments, cells were incubated for 5 hours with an equivalent volume of DMSO or SAINT-Protein to the above studies, with or without forskolin stimulation.
To assess PKA degradation, anti-PKAc (1:1000, BD Biosciences) and anti-GAPDH (1:1000, Proteintech) primary antibodies were used. To assess PKA substrate phosphorylation, anti-phospho serine/threonine PKA substrate (1:1000, Cell Signaling […]
Incubation with primary antibodies was followed by incubation with anti-mouse […]
Biosciences). Western blot fluorescence detection was performed using a LI-COR Odyssey Fc imaging system. Data analysis was performed using GraphPad Prism […]
Figure S7: Western blots for PKA substrate phosphorylation. Experiments were performed in triplicate (n=3) in low passage number MDA-MB-231 cells (ATCC HTB-26). Following t = 24 hour starvation in serum-free RPMI media, cells were treated for t = 5 hours with DMSO, SAINT-Protein Lipid reagent alone, 10 µM StIP-TAC, or 10 µM StIP-TAC incubated with SAINT-Protein Lipid reagent per manufacturer instructions. For forskolin-stimulated treatments, cells were incubated for 30 minutes with 50 µM forskolin […]
prior to harvesting in Laemmli sample buffer. For H89-inhibited treatments, cells were incubated for 30 minutes prior to forskolin stimulation with 50 µM H89. Lysates were run via SDS-PAGE and Western blotting performed anti-phospho serine/threonine PKA substrate (1:1000, Cell Signaling Technology) and anti-tubulin (1:1000, Cell Signaling Technology) primary antibodies.

[3] = target: recombinant human DNAJB1-PKAc (Homo sapiens, UniProt P17612+P25685); assay: Fluorescence polarization direct binding of fluorescein-labeled peptides; conditions: FP, N-terminally FAM-labeled peptide 0.5 nM, DNAJ-PKA-C 3 µM to 30 pM, 20 mM MOPS pH 7, 150 mM NaCl, 0.005% CHAPS, 1 mM ATP, 10 mM MgCl2, room temperature, mean and SD of three independent measurements
Procedure: To determine the binding affinity of the truncated library toward the catalytic subunit of PKA, fluorescence polarization (FP) experiments were performed using N-terminally fluorescein-labeled PKI-derived peptides incubated with a range of concentrations of recombinant human DNAJB1-PKAc (Figure 2). The DNAJB1-PKAc chimera is a clinically relevant protein identified in fibrolamellar hepatocellular carcinoma (FL-HCC) patients that combines the chaperonin-binding domain of heat-shock protein 40 (HSP40/DNAJ) with the catalytic (c) subunit of PKA.[34] The active site of the DNAJB1-PKAc protein is identical to native PKAc and retains inhibition by PKI with a nearly identical binding conformation.[35] […] To generate the StIP-TAC, several PEG linker lengths were conjugated with the thalidomide-derived Cereblon Ligand 1 and preliminarily tested (PEG3 to PEG9; Figure S2). All PEG lengths appeared to yield compound activity, and thus the PEG8 linker was chosen to provide greater flexibility to the overall compound. […]
Fluorescence Polarization (FP) Assay. Binding studies for the truncated peptide library to DNAJ-PKA-C were performed according to protocols described previously 21.
FAM-labeled peptides were plated to a final concentration of 0.5 nM after the addition of protein in 384-well microtiter plates. A tenfold dilution series of DNAJ-PKA-C were mixed in peptide wells to have 6 final concentrations ranging from 3 µM to 30 pM.
Assays were performed using FP buffer (20 mM MOPS pH 7, 150 mM NaCl, 0.005% CHAPS, 1 mM ATP, 10 mM MgCl2) at room temperature. All data were obtained using a BioTek Synergy 2 microplate reader using the following settings: excitation/emission/dichroic filters: 485-20 nm/528-20 nm/510 nm, 50 flashes per well, settling time 0.1 s. Non-linear regression (sigmoidal dose-response) was performed using GraphPad Prism 6.01 on FP signals plotted against log-scale protein concentrations to determine equilibrium dissociation constants (KD). Data analysis was performed using GraphPad Prism (Dotmatics). […]

Row | Kd [3] [nM] | Kd ([3]; SD) [nM] | Compound | phosphorylated VASP [1] | total PKA substrate phosphorylation [2]
1 | – | – | O=S(=O)(NCCNC/C=C/c1ccc(Br)cc1)c1cccc2cnccc12 [H89, reference compound] | statistically significant reduction | statistically significant reduction
2 | 3 to 4 | 3.5 ± 0.1 | CC[C@H](C)[C@H](NC(=O)[C@H](C)NC(=O)[C@H](CC(N)=O)NC(=O)[C@H](CCCNC(=N)N)NC(=O)[C@H](CCCNC(=N)N)NC(=O)CNC(=O)[C@@H](NC(=O)[C@H](CCCNC(=N)N)NC(=O)CNC(=O)[C@H](CO)NC(=O)[C@H](C)NC(=O)[C@@H](NC(=O)[C@H](Cc1ccccc1)NC(=O)[C@H](CC(=O)O)NC(=O)[C@]1(C)CCCC=CCCC[C@](C)(NC(=O)COCCOCCOCCNC(=O)c2ccc3c(c2)C(=O)OC32c3ccc(O)cc3Oc3cc(O)ccc32)C(=O)N[C@@H]([C@@H](C)O)C(=O)N[C@@H]([C@@H](C)O)C(=O)N[C@@H](Cc2ccc(O)cc2)C(=O)N1)[C@@H](C)CC)[C@@H](C)O)C(N)=O [StIP-3] | – | –
3 | 3 to 4 | 3.2 ± 0.1 | CC[C@H](C)[C@H](NC(=O)[C@H](C)NC(=O)[C@H](CC(N)=O)NC(=O)[C@H](CCCNC(=N)N)NC(=O)[C@H](CCCNC(=N)N)NC(=O)CNC(=O)[C@@H](NC(=O)[C@H](CCCNC(=N)N)NC(=O)CNC(=O)[C@H](CO)NC(=O)[C@H](C)NC(=O)[C@@H](NC(=O)[C@H](Cc1ccccc1)NC(=O)[C@H](CC(=O)O)NC(=O)[C@]1(C)CCCC=CCCC[C@](C)(NC(=O)[C@@H](NC(=O)[C@H](CC(=O)O)NC(=O)[C@@H](NC(=O)COCCOCCOCCNC(=O)c2ccc3c(c2)C(=O)OC32c3ccc(O)cc3Oc3cc(O)ccc32)[C@@H](C)O)C(C)C)C(=O)N[C@@H]([C@@H](C)O)C(=O)N[C@@H]([C@@H](C)O)C(=O)N[C@@H](Cc2ccc(O)cc2)C(=O)N1)[C@@H](C)CC)[C@@H](C)O)C(N)=O [StIP-4] | – | –
